Consider 20 molecules from patent US7109214B2, “Substituted cyclopentene compounds” (Grunenthal GmbH, priority 2004, dated 2006).

Data set [1] concerns the target T1, recombinant human CGRP1 receptor (CRLR and RAMP1) (Homo sapiens, UniProt O60894+Q16602).
T1 construct: purchased Euroscreen, Belgium ES420-M9; host or cells: CHO-K1 cell membranes
Description: Inhibition of binding of 3-[125I]-iodohistidyl10-α-CGRP to the human CGRP1 receptor (SPA). The note with it: read-out: Inhibition in % of binding of 3-[125I]-iodohistidyl10 CGRP; at a concentration of 10 μM of the particular compound. On the procedure:
(A) Investigation of the Inhibition of Binding of [^125I]-α-CGRP to the Human CGRP1 Receptor
Various CGRP receptor subtypes are known which in each case consist of a complex of CRLR (Calcitonin Receptor-Like Receptor), RAMP (Receptor-Associated Membrane Protein) and RCP (Receptor Component Protein).
Investigation of the inhibition of the binding of 3-[^125I]-iodohistidyl^10-α-CGRP is carried out on a human CGRP1 receptor, which is composed of the recombinant human constituents (Calcitonin Receptor-Like Receptor) CRLR and (Receptor-Associated Membrane Protein) RAMP1 (item no. ES420-M9, Euroscreen, Belgium).
The radioligand used is 3-[^125I]-iodohistidyl^10 Calcitonin Gene-Related Peptide (Amersham pharmacia biotech, code IM 184, 2000 Ci/mmol).
The binding studies are performed as SPA (scintillation proximity assay) batches with WGA beads (wheat germ agglutinin, Amersham pharmacia biotech, code: RPNQ 0001). The incubation buffer used is 50 mm tris pH 7.4 with 120 mM NaCl, 5 mM KCl and 5 mM MgCl2. 0.25 μg of protein of membrane suspension of CHO-K1 cells, 250 μg of beads and 10 μg of albumin (BSA) and the above-stated radioligand in a concentration of […] together with the compound according to the invention to be investigated in a concentration of 10 μM are introduced into each well of a microtitre plate.
After an incubation period of 90 minutes, radioactivity is measured in a Trilux detector (Wallac, Finland).
The inhibition of binding of 3-[^125I]-iodohistidyl^10 Calcitonin Gene-Related Peptide to the recombinant human CGRP1 receptor was determined in accordance with the method described above.

In another data set the target is T2, CGRP1 receptors (Cavia porcellus, UniProt H0UV86+Q8R4C6).
T2 sequence (H0UV86 23-464): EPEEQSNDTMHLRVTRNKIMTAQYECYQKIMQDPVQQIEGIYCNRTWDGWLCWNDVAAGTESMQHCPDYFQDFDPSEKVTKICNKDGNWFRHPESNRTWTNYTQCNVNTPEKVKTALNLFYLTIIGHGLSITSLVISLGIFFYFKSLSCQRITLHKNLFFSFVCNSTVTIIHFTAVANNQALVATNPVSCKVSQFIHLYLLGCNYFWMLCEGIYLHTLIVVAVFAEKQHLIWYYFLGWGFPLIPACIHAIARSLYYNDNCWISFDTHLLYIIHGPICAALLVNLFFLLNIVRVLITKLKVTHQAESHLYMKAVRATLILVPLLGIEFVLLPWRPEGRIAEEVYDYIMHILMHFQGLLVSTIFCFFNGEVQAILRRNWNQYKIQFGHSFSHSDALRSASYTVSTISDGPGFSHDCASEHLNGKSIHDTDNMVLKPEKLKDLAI
T2 sequence (Q8R4C6 27-148): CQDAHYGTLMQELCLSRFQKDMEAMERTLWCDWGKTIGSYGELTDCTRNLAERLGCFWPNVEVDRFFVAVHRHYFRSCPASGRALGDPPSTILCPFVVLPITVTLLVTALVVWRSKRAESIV
Nature of the data set: CGRP receptor affinity on isolated, spontaneously beating guinea pig atrium. On the procedure:
J. Physiol. Pharmacol. 75: 671–6,1997. The corresponding literature description is hereby introduced as a reference and is deemed to be part of the disclosure.
The exposure time for each concentration level is 2 minutes.
The validation and investigation of the substituted cyclopentene compounds according to the invention for their antagonistic action proceeded in accordance with the above-described method.

The target of data set [2] is T3, human calcitonin receptor-related receptor (CRLR) and human RAMP1 (Homo sapiens, UniProt O60894+Q16602).
T3 construct: purchased Euroscreen, Brussels, Belgium; host or cells: CHO-K1 cells (transfected), membranes
Description: GTPγS assay: CGRP-induced [35S]GTPγS incorporation into CHO-K1 membranes. The class given is biochemical. On the procedure: The antagonistic action of the substituted cyclopentene compounds according to the invention was determined using this assay.
To this end, membranes from CHO-K1 cells (Euroscreen, Brussels, Belgium), which are transfected with the human calcitonin receptor-related receptor (CRLR, Genbank: U17473) and human receptor-associated modifying protein type 1 (RAMP1, Genbank AJ001014), are first of all rapidly thawed, diluted in 20 mM HEPES, 10 mM NaCl, 10 mM MgCl2, 1 mM EDTA pH 7.4 and resuspended by homogenisation. […] After 30 minutes' incubation at room temperature, 50 μl of 2 nM [35S]GTPγS (Amersham) are added and incubated for a further 30 minutes at room temperature and the assay-plate is centrifuged for 10 minutes at 3200 revolutions per minute. Bound activity was determined with a Wallac 1450 Microbeta Scintillation Counter (Wallac, Torku, Finland).
The inhibition of CGRP-induced incorporation of [^35S]GTPγS into membranes was determined in accordance with the above-described method.

For data set [3], the target named is T4, endogenous CGRP receptors in SK-N-MC cells (Homo sapiens, UniProt O60894+Q16602).
T4 construct: host or cells: SK-N-MC human neuroblastoma cells
Description: Action on the formation of cAMP in the human neuroblastoma cell line SK-N-MC. The class given is cell-based. Particulars: at 1 nM CGRP, compounds used in 10 μM concentrations. An excerpt: The corresponding description is hereby introduced as a reference and is deemed to be part of the disclosure.

The mark [4] stands for this setting: read-out: IC50 value for CGRP-antagonistic action, isolated guinea pig atria stimulated by h-α-CGRP.

Structures can show the parent of a compound that is named as a salt. Where two headings read alike, the source gives them in different places.

T1 sequence (Q16602 23-461): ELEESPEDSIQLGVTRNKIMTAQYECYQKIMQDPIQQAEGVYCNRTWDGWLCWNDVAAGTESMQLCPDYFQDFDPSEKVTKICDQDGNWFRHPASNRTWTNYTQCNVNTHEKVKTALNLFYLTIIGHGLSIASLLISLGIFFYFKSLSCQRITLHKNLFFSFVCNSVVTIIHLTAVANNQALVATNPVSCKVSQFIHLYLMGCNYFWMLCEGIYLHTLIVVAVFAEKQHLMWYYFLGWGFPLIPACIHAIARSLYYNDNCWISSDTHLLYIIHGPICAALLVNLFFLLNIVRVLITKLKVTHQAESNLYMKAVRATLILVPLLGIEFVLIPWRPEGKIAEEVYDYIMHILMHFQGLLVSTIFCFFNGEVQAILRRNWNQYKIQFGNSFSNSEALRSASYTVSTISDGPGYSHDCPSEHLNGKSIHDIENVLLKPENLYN
T1 sequence (O60894 27-148 partner): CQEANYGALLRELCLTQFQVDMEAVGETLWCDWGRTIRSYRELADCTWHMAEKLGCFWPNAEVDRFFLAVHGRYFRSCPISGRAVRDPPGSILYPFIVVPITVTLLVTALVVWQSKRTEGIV
T4 sequence (Q16602 23-461): as the sequence (Q16602 23-461) above
T4 sequence (O60894 27-148 partner): as the sequence (O60894 27-148 partner) above
T3 sequence (Q16602 23-461): as the sequence (Q16602 23-461) above
T3 sequence (O60894 27-148 partner): as the sequence (O60894 27-148 partner) above

Molecule `CN(C)CC1CC(c2ccc(S(C)(=O)=O)cc2)=C(c2ccc3c(c2)OCO3)C1=O.Cl` (stereo not drawn) gave a melting point of 149 to 152 °C.
The same measure, in the same setting: the same measure for `CN(C)CC1CC(c2ccc(S(C)(=O)=O)cc2)=C(c2cc(Cl)cc(Cl)c2)C1=O.Cl` (stereo not drawn): 160 to 163 °C; for `Cc1cc(C2=C(c3ccc(S(C)(=O)=O)cc3)CC(CN(C)C)C2=O)ccc1F.Cl` (stereo not drawn): 95 to 98 °C (dec.); for `CN(C)CC1CC(c2ccc(S(C)(=O)=O)cc2)=C(c2ccc(C(C)(C)C)cc2)C1=O.Cl` (stereo not drawn): 182 to 184 °C.
Still for that read-out and setting: the value for `CCOc1cccc(C2=C(c3ccc(S(C)(=O)=O)cc3)CC(CN(C)C)C2=O)c1.Cl` (stereo not drawn) was 149 to 151 °C; that for `CN(C)CC1CC(c2ccc(S(C)(=O)=O)cc2)=C(c2ccc(S(C)(=O)=O)cc2)C1=O.Cl` (stereo not drawn) was 157 to 159 °C.
In turn, `CN(C)CC1CC(c2ccc(S(C)(=O)=O)cc2)=C(c2ccc3ccccc3c2)C1=O.Cl` (stereo not drawn) displayed a melting point of 163 to 165 °C.
Turning to `Cc1ccc(C2=C(c3ccc(S(C)(=O)=O)cc3)CC(CN(C)C)C2=O)cc1C.Cl` (stereo not drawn), the melting point fell in the range of 139 to 142 °C.
On to `Cc1cccc(C2=C(c3ccc(S(C)(=O)=O)cc3)CC(CN(C)C)C2=O)c1.Cl` (stereo not drawn), for which the melting point was in the range of 148 to 150 °C.
For the molecule `CC(C)c1cccc(C2=C(c3ccc(S(C)(=O)=O)cc3)CC(CN(C)C)C2=O)c1.Cl` (stereo not drawn), the melting point is 131 to 133 °C.
The same measure, in the same setting: the value for `CN(C)CC1CC(c2ccc(S(C)(=O)=O)cc2)=C(c2cccc(Cl)c2)C1=O.Cl` (stereo not drawn) was 156 to 158 °C.
In the case of `Cc1ccc(C2=C(c3ccc(S(C)(=O)=O)cc3)CC(CN(C)C)C2=O)cc1.Cl` (stereo not drawn), the melting point lay in the range of 127 to 129 °C.
The same measure, in the same setting: the value for `CN(C)CC1CC(c2ccc(S(C)(=O)=O)cc2)=C(c2ccc(O)cc2)C1=O.Cl` (stereo not drawn) was 98 to 100 °C; that for `CN(C)CC1CC(c2ccc(S(C)(=O)=O)cc2)=C(c2cccc(C(F)(F)F)c2)C1=O.Cl` (stereo not drawn) was 152 to 154 °C.
For the molecule `CN(C)CC1CC(c2ccc(S(C)(=O)=O)cc2)=C(c2cc(F)cc(F)c2)C1=O.Cl` (stereo not drawn) [Example 1, 2-(3,5-Difluorophenyl)-5-dimethylaminomethyl-3-(4-methanesulfonylphenyl)-cyclopent-2-enone, hydrochloride], the inhibition at 10 µM in data set [1] is 40%. Further, the half-maximal inhibitory concentration (IC50) on CGRP1 receptors (setting [4]) is 13 µM. For the same molecule, the inhibition at 12.5 µM in data set [2] worked out at 65.1%. The “Inhibition of cAMP formation” value in data set [3] stood at 71%.
As for `CN(C)CC1CC(c2ccc(S(C)(=O)=O)cc2)=C(c2cccc(O)c2)C1=O.Cl` (stereo not drawn) [Example 3, 5-Dimethylaminomethyl-2-(3-hydroxyphenyl)-3-(4-methanesulfonylphenyl)-cyclopent-2-enone, hydrochloride], the melting point lay within 162 to 164 °C. The inhibition at 10 µM in data set [1] amounted to 66%. The concentration for half-maximal inhibition (IC50) on CGRP1 receptors (setting [4]) amounted to 77 µM. The inhibition at 12.5 µM in data set [2] is 65.1%. The “Inhibition of cAMP formation” value in data set [3] is 86%.
Taken in the same sequence, the figures for `CN(C)CC1CC(c2ccc(S(C)(=O)=O)cc2)=C(c2cccc(F)c2)C1=O.Cl` (stereo not drawn) [Example 5, 5-Dimethylaminomethyl-2-(3-fluorophenyl)-3-(4-methanesulfonylphenyl)-cyclopent-2-enone, hydrochloride] were 154 to 158 °C, 58%, 25 µM, 62.4% and 82%.
Taken in the same sequence, the figures for `COc1cccc(C2=C(c3ccc(S(C)(=O)=O)cc3)CC(CN(C)C)C2=O)c1.Cl` (stereo not drawn) [Example 13, 5-Dimethylaminomethyl-3-(4-methanesulfonylphenyl)-2-(3-methoxyphenyl)-cyclopent-2-enone, hydrochloride] were 154 to 157 °C, 60%, 32 µM, 63.9% and 88%.
On to `CN(C)CC1CC(c2ccc(S(C)(=O)=O)cc2)=C(c2ccc(C(C)(C)C)cc2)C1O` (stereo not drawn) [Example 21, 2-(4-tert-Butylphenyl)-5-dimethylaminomethyl-3-(4-methanesulfonylphenyl)-cyclopent-2-enol, hydrochloride], for which the inhibition at 10 µM in data set [1] is 26%.
For “h-α-CGRP(8-37): human α-CGRP(8-37), CGRP1-antagonistic fragment used to validate the guinea pig atrium model [reference compound]”, the “Reduction in the increase in the frequency of beating of the atria stimulated by h-α-CGRP (in words)” value with CGRP1 receptors (concentrations of 30, 100 and 300 nM) is “concentration-dependent reduction”. In addition, the half-inhibitory concentration (IC50) with CGRP1 receptors (validation experiment, isolated guinea pig atria, read-out: IC50 (semimaximal action), reduction of h-α-CGRP-stimulated increase in frequency of beating) came to 0.019 µM.
